In ChEMBL document CHEMBL1150081, “Antimicrobial Agents from Tanacetum balsamita” (1995) one finds MIC and Activity data, which are given here for 6 compounds.

Each structure is given as a SMILES string. Values after ≈ are worked out from the molar mass of the structure shown. Active and inactive are the calls of the source. No cut-off for these calls is given here.

In assay [1] the test system is Pseudomonas aeruginosa. As to the kind of experiment: Antibacterial activity against Pseudomonas aeruginosa ATCC 10145 after 2 days by broth dilution method. To be noted: ATCC 10145, 48 h. The class given is functional.
Assay [2] deals with Cutibacterium acnes. As to the kind of experiment: Antibacterial activity against Propionibacterium acnes ATCC 11827 after 2 days by broth dilution method. The class given is functional. To be noted: ATCC 11827, 48 h.
In assay [3] the test system is Saccharomyces cerevisiae. As to the kind of experiment: Antifungal activity against Saccharomyces cerevisiae ATCC 7754 after 2 days by broth dilution method. It is filed as functional. To be noted: ATCC 7754, 48 h.
For assay [4], the system named is Trichophyton mentagrophytes. As to the kind of experiment: Antifungal activity against Trichophyton mentagrophytes ATCC 18748 after 5 days by broth dilution method. To be noted: ATCC 18748, 120 h. It is filed as functional.
For assay [5], the system named is Escherichia coli. As to the kind of experiment: Antibacterial activity against Escherichia coli ATCC 9637 after 2 days by broth dilution method. The class given is functional. The conditions noted are these: ATCC 9637, 48 h.
Assay [6] concerns Proteus vulgaris. As to the kind of experiment: Antibacterial activity against Proteus vulgaris ATCC 13315 after 2 days by broth dilution method. It is filed as functional. The conditions noted are these: ATCC 13315, 48 h.
The subject of assay [7] is Klebsiella aerogenes. As to the kind of experiment: Antibacterial activity against Enterobacter aerogenes ATCC 13048 after 2 days by broth dilution method. It is filed as functional. To be noted: ATCC 13048, 48 h.
Assay [8] has as its system Corynebacterium ammoniagenes. As to the kind of experiment: Antibacterial activity against Brevibacterium ammoniagenes ATCC 6872 after 2 days by broth dilution method. It is filed as functional. To be noted: ATCC 6872, 48 h.
In assay [9] the test system is Staphylococcus aureus. As to the kind of experiment: Antibacterial activity against Staphylococcus aureus ATCC 12598 after 2 days by broth dilution method. The class given is functional. To be noted: ATCC 12598, 48 h.
Assay [10] concerns Penicillium chrysogenum. As to the kind of experiment: Antifungal activity against Penicillium chrysogenum ATCC 10106 after 5 days by broth dilution method. The class given is functional. The conditions noted are these: ATCC 10106, 120 h.
Assay [11] relates to Malassezia. As to the kind of experiment: Antifungal activity against Pityrosporum ovale ATCC 14521 after 3 days by broth dilution method. It is filed as functional. To be noted: ATCC 14521, 72 h.
Assay [12] has as its system Cyberlindnera jadinii. As to the kind of experiment: Antifungal activity against Candida utilis ATCC 9226 after 2 days by broth dilution method. The class given is functional. To be noted: Williopsis jadinii, ATCC 9226, 48 h.
For assay [13], the system named is Bacillus subtilis. As to the kind of experiment: Antibacterial activity against Bacillus subtilis ATCC 9372 after 2 days by broth dilution method. The class given is functional. To be noted: ATCC 9372, 48 h.
The subject of assay [14] is Streptococcus mutans. As to the kind of experiment: Antibacterial activity against Streptococcus mutans ATCC […] after 2 days by broth dilution method. To be noted: 48 h. It is filed as functional.
The test system of assay [15] is Streptococcus mutans. As to the kind of experiment: Antibacterial activity against Streptococcus mutans ATCC […] up to 800 ug/ml after 2 days by broth dilution method. It is filed as functional, organism-based.
Assay [16] deals with Klebsiella aerogenes. As to the kind of experiment: Antibacterial activity against Enterobacter aerogenes ATCC 13048 up to 800 ug/ml after 2 days by broth dilution method. The class given is functional, organism-based.
In assay [17] the test system is Malassezia. As to the kind of experiment: Antifungal activity against Pityrosporum ovale ATCC 14521 up to 800 ug/ml after 3 days by broth dilution method. The class given is functional, organism-based.
The test system of assay [18] is Corynebacterium ammoniagenes. As to the kind of experiment: Antibacterial activity against Brevibacterium ammoniagenes ATCC 6872 up to 800 ug/ml after 2 days by broth dilution method. The class given is functional, organism-based.
Assay [19] deals with Proteus vulgaris. As to the kind of experiment: Antibacterial activity against Proteus vulgaris ATCC 13315 up to 800 ug/ml after 2 days by broth dilution method. The class given is functional, organism-based.
Assay [20] deals with Staphylococcus aureus. As to the kind of experiment: Antibacterial activity against Staphylococcus aureus ATCC 12598 up to 800 ug/ml after 2 days by broth dilution method. It is filed as functional, organism-based.
The test system of assay [21] is Penicillium chrysogenum. As to the kind of experiment: Antifungal activity against Penicillium chrysogenum ATCC 10106 up to 800 ug/ml after 5 days by broth dilution method. It is filed as functional, organism-based.
In assay [22] the test system is Saccharomyces cerevisiae. As to the kind of experiment: Antifungal activity against Saccharomyces cerevisiae ATCC 7754 up to 800 ug/ml after 2 days by broth dilution method. It is filed as functional, organism-based.
The subject of assay [23] is Cyberlindnera jadinii. As to the kind of experiment: Antifungal activity against Candida utilis ATCC 9226 up to 800 ug/ml after 2 days by broth dilution method. It is filed as functional, organism-based.
For assay [24], the system named is Cutibacterium acnes. As to the kind of experiment: Antibacterial activity against Propionibacterium acnes ATCC 11827 up to 800 ug/ml after 2 days by broth dilution method. It is filed as functional, organism-based.
Assay [25] has as its system Pseudomonas aeruginosa. As to the kind of experiment: Antibacterial activity against Pseudomonas aeruginosa ATCC 10145 up to 800 ug/ml after 2 days by broth dilution method. The class given is functional, organism-based.
Assay [26] deals with Bacillus subtilis. As to the kind of experiment: Antibacterial activity against Bacillus subtilis ATCC 9372 up to 800 ug/ml after 2 days by broth dilution method. It is filed as functional, organism-based.
The subject of assay [27] is Escherichia coli. As to the kind of experiment: Antibacterial activity against Escherichia coli ATCC 9637 up to 800 ug/ml after 2 days by broth dilution method. It is filed as functional, organism-based.
Assay [28] has as its system Trichophyton mentagrophytes. As to the kind of experiment: Antifungal activity against Trichophyton mentagrophytes ATCC 18748 up to 800 ug/ml after 5 days by broth dilution method. The class given is functional, organism-based.

`CC(C)=CC=O` [3-METHYL-(E)-2-BUTENAL]: the minimal inhibitory concentration (MIC) in the assay on Pseudomonas aeruginosa [1] was over 800 µg/mL; against Cutibacterium acnes [2], 800 µg/mL (≈ 9510 µM); against Saccharomyces cerevisiae [3], 800 µg/mL (≈ 9510 µM); in assay [4], 200 µg/mL (≈ 2380 µM); against Escherichia coli [5], over 800 µg/mL; in the assay with Proteus vulgaris [6], 800 µg/mL (≈ 9510 µM). Besides, the MIC with Klebsiella aerogenes [7] was over 800 µg/mL; in [8], over 800 µg/mL; in the assay on Staphylococcus aureus [9] it was over 800 µg/mL; with Penicillium chrysogenum [10], 50 µg/mL (≈ 594 µM); against Malassezia [11], 200 µg/mL (≈ 2380 µM); in the assay with Cyberlindnera jadinii [12], 800 µg/mL (≈ 9510 µM). In addition, the minimal inhibitory concentration (MIC) was 800 µg/mL (≈ 9510 µM) against Bacillus subtilis [13] and over 800 µg/mL in the assay with Streptococcus mutans [14].
In the case of `CCCCC/C=C/C=C/C=O`, the MIC against Pseudomonas aeruginosa [1] was over 800 µg/mL; in the assay with Cutibacterium acnes [2], 12.5 µg/mL (≈ 82.1 µM); against Saccharomyces cerevisiae [3] it was 25 µg/mL (≈ 164 µM); in [4] it was 1.56 µg/mL (≈ 10.2 µM); in the assay with Escherichia coli [5] it was over 800 µg/mL; in the assay on Proteus vulgaris [6] it was 25 µg/mL (≈ 164 µM). Besides, the MIC was over 800 µg/mL with Klebsiella aerogenes [7]; 100 µg/mL (≈ 657 µM) in [8]; 50 µg/mL (≈ 328 µM) against Staphylococcus aureus [9]; 12.5 µg/mL (≈ 82.1 µM) with Penicillium chrysogenum [10]; 12.5 µg/mL (≈ 82.1 µM) with Malassezia [11]; 25 µg/mL (≈ 164 µM) against Cyberlindnera jadinii [12]. For the same compound, the minimal inhibitory concentration (MIC) in the assay with Bacillus subtilis [13] stood at 50 µg/mL (≈ 328 µM); against Streptococcus mutans [14] it was 100 µg/mL (≈ 657 µM).
In the case of `CCCCCC/C=C/C=O` [2-NONENAL], the MIC in the assay with Pseudomonas aeruginosa [1] is over 800 µg/mL; with Cutibacterium acnes [2] it was 25 µg/mL (≈ 178 µM); in the assay on Saccharomyces cerevisiae [3], 25 µg/mL (≈ 178 µM); in [4] it was 12.5 µg/mL (≈ 89.1 µM); in the assay on Escherichia coli [5], 200 µg/mL (≈ 1430 µM); against Proteus vulgaris [6], 25 µg/mL (≈ 178 µM). Also, the MIC was 200 µg/mL (≈ 1430 µM) against Klebsiella aerogenes [7]; 100 µg/mL (≈ 713 µM) in [8]; 50 µg/mL (≈ 357 µM) in the assay with Staphylococcus aureus [9]; 50 µg/mL (≈ 357 µM) in the assay on Penicillium chrysogenum [10]; 25 µg/mL (≈ 178 µM) against Malassezia [11]; 25 µg/mL (≈ 178 µM) against Cyberlindnera jadinii [12]. Further, the MIC came out at 50 µg/mL (≈ 357 µM) in the assay on Bacillus subtilis [13] and 100 µg/mL (≈ 713 µM) against Streptococcus mutans [14].
Consider `CCCCCCCCCCCCCCCC(=O)O`, for which the outcome (in the assay on Streptococcus mutans [15]; in the assay with Klebsiella aerogenes [16]; in the assay with Malassezia [17]; in [18]; in the assay on Proteus vulgaris [19]; with Staphylococcus aureus [20]) was inactive. The outcome with Penicillium chrysogenum [21], with Saccharomyces cerevisiae [22], in the assay with Cyberlindnera jadinii [23], in the assay with Cutibacterium acnes [24], in the assay with Pseudomonas aeruginosa [25] and with Bacillus subtilis [26] was inactive. The result (in the assay on Escherichia coli [27]; in assay [28]) was inactive.
Regarding `CCCCCCCC(=O)O` [OCTANOIC ACID], the MIC with Pseudomonas aeruginosa [1] was over 800 µg/mL; in the assay with Cutibacterium acnes [2], 200 µg/mL (≈ 1390 µM); in the assay with Saccharomyces cerevisiae [3], 200 µg/mL (≈ 1390 µM); in [4], 50 µg/mL (≈ 347 µM); against Escherichia coli [5] it was over 800 µg/mL; in the assay on Proteus vulgaris [6], 200 µg/mL (≈ 1390 µM). The minimal inhibitory concentration (MIC) against Klebsiella aerogenes [7] is over 800 µg/mL; in assay [8], 400 µg/mL (≈ 2770 µM); against Staphylococcus aureus [9], 400 µg/mL (≈ 2770 µM); against Penicillium chrysogenum [10], 100 µg/mL (≈ 693 µM); in the assay on Malassezia [11], 200 µg/mL (≈ 1390 µM); in the assay on Cyberlindnera jadinii [12] it was 200 µg/mL (≈ 1390 µM). Moreover, the figures for the minimum inhibitory concentration (MIC) in the assay on Bacillus subtilis [13] and in the assay on Streptococcus mutans [14] were 200 µg/mL (≈ 1390 µM) and 1600 µg/mL (≈ 11100 µM), respectively.
Take `CCCCCCCC/C=C/C=O`: the minimal inhibitory concentration (MIC) in the assay with Pseudomonas aeruginosa [1] is over 800 µg/mL; against Cutibacterium acnes [2], 6.25 µg/mL (≈ 37.1 µM); in the assay with Saccharomyces cerevisiae [3], 25 µg/mL (≈ 149 µM); in assay [4] it was 1.56 µg/mL (≈ 9.27 µM); in the assay with Escherichia coli [5], over 800 µg/mL; against Proteus vulgaris [6], 12.5 µg/mL (≈ 74.3 µM). The MIC was over 800 µg/mL with Klebsiella aerogenes [7]; 25 µg/mL (≈ 149 µM) in assay [8]; 12.5 µg/mL (≈ 74.3 µM) against Staphylococcus aureus [9]; 6.25 µg/mL (≈ 37.1 µM) against Penicillium chrysogenum [10]; 25 µg/mL (≈ 149 µM) against Malassezia [11]; 12.5 µg/mL (≈ 74.3 µM) against Cyberlindnera jadinii [12]. For the same compound, the MIC with Bacillus subtilis [13] amounted to 25 µg/mL (≈ 149 µM); in the assay on Streptococcus mutans [14], 50 µg/mL (≈ 297 µM).
